{"source": "patent US9345691B2", "about": "“Beta-lactam compounds for enhancing T cell-mediated immune responses” (STEM CELL MEDICINE LTD., priority 2011, dated 2016)", "key": {"[1]": {"tested_on": "encephalitogenic BP10 T-cell line", "experiment": "Adoptive EAE by BP10 line stimulated in vitro with test substance", "type": "in vivo, rat", "conditions": "BP10 line stimulated 3 days with MBP in presence of 50 μg/ml; 10^7 cells IP per rat", "source_text": "The ability of a compound to enhance T cell activity may be determined, for example, using an in vivo assay testing the effect of a given compound on the severity of adoptive (passive) EAE, namely, EAE which is induced by the injection of activated encephalitogenic T cell line to the model animal. In order to test a compound, the encephalitogenic T cells are activated in the presence of the compound prior to injection. An exemplary procedure is described in the Examples section hereinbelow.\nAntigen-specific T-cell lines were established from lymph node cells that had been stimulated with myelin basic protein (MBP; 10 μg/ml) for 3 days in stimulation medium as described below. Following stimulation, the T-cell blasts were isolated on Lympho-prep (Nycomed Pharma, Oslo, Norway) and seeded in propagation medium. Propagation medium was identical to stimulation medium without autologous serum, but supplemented with fetal calf serum 10% and T-cell growth factors from the supernatant of Con A stimulated spleen cells 10% (Mor et al. (1990) J Clin Invest, 85, 1594-1598). Animals were injected intra-peritoneally with 10^7 MBP-stimulated T cells, following 6-8 cycles of in vitro stimulations. It is known that MBP-reactive lines undergo a reduction in pathogenicity after 6 or more in vitro stimulations. In some experiments the BP10 line was stimulated with phorbol myristate acetate (PMA; 50 ng/ml) and ionomycin (500 ng/ml) for 3 days in stimulation medium, without antigen-presenting cells.\nActive EAE was induced by subcutaneous injection of 25 μg guinea-pig MBP (GpMBP) in complete Freund's adjuvant (CFA). CFA was prepared by adding 4 mg/ml Mycobacterium tuberculosis H37Ra (Difco, Mich.) to incomplete Freund's adjuvant (IFA). Adoptive EAE was transferred by intra-peritoneal injection of guinea-pig MBP-activated cells of the BP10 line as described in Mor et al. (1993) J Clin Invest, 92, 2199-2206. […] Clinical scoring was: +1, paralysis of tail; +1.5, paresis of posterior paws and ataxia; +2, paraplegia; +3, paralysis extending to thoracic spine; +4, a moribund state.\nTreatment with cefuroxime in vivo could affect many different host agents involved in EAE or AA as well as influencing the rats' bacterial flora. To test whether the antibiotic might directly modify the behavior of effector T cells, an encephalitogenic T-cell line was stimulated in the presence or absence of cefuroxime in vitro. The weakly encephalitogenic BP10 line was used, and was stimulated for 3 days with MBP in the presence or absence of cefuroxime (50 μg/ml). The activated T cells were then washed to remove the antibiotic, the T cells were injected intra-peritoneally into naïve recipient rats (10^7 per rat), and EAE was scored. The BP10 line at later stimulations was used, when its pathogenic potential is reduced, allowing to detect both suppression and enhancement of disease. […] To rule out antigen presenting cells (APC) as the target of the beta-lactam antibiotic, the encephalitogenic BP10 line was stimulated without APC using PMA (50 ng/ml) and Ionomycin (500 ng/ml) in the presence or absence of cefuroxime."}, "CD4+ human T cells": {"tested_on": "CD4+ human T cells", "experiment": "Human Autoimmune and Inflammatory Response Gene Array, anti-CD3 stimulated T cells", "type": "cell-based", "conditions": "120 min anti-CD3; for % increase by Amp.: ampicillin 50 μg/ml", "experimental": "T cells were purified from the peripheral bloods of healthy human donors (Blood Bank, Sheba Medical center). The whole blood was incubated (20 min, 22° C.) with RosetteSep™ human T cell enrichment mixture (StemCell Technologies, Vancouver, Canada). The remaining unsedimented cells were then loaded onto lymphocyte separation medium (ICN Biomedicals, Irvine, Calif.), isolated by density centrifugation, and washed with PBS. […] In a second round of purification, CD3^+ T cells were labeled for selection with a magnetically coupled mAb against CD4 (Miltenyi Biotec, Auburn, Calif.).\nHuman CD4 T cells were isolated as described, and incubated in 24 well plates (Nunc), 4×10^6 cells/ml with plate bound anti-human CD3 (OKT3) at 2 μg/ml. The stimulation was performed in RPMI medium supplemented with 0.1% BSA. […] RNA was extracted from samples and used to prepare probes for gene array in accord with the manufacturer's instructions (SuperArray Bioscience, Frederick, Md.). Adequate labeling of the probes was tested before hybridization. Three healthy donors were tested in stimulation with cefuroxime. The membranes were analyzed online with the Image Data Acquisition and Expression Analysis (SuperArray Bioscience).\nThe Human Autoimmune and Inflammatory Response Gene Array (SuperArray Bioscience corporation, Frederick, Md., USA) was used for analysis of gene expression by the T cells. This array contains 367 genes including cytokines, chemokines and their receptors, transcription factors and signaling proteins. […] Analysis of the results was performed using the GEArray analysis program (www.SuperArray.com). […] To verify the results detected by the gene array study, a panel of six genes was designed and tested by real-time PCR: CCR4, ACVR2, JAK1, STAT4, TLR2 and NFKBIE. The cDNA that was used was prepared from the same RNA used for the gene array experiment."}}, "data": [{"smiles": "CC1(C)S[C@@H]2[C@H](NC(=O)[C@H](N)c3ccccc3)C(=O)N2[C@H]1C(=O)O", "note": "[ampicillin]", "values": [{"measurement": "severity of adoptive EAE", "setting": "[1]", "value": "did not increase the severity of EAE"}, {"measurement": "number of the 57 cefuroxime-down-regulated genes up-regulated", "setting": "CD4+ human T cells; 50 μg/ml", "value": 56, "unit": "genes"}, {"measurement": "% increase by Amp.", "setting": "CD4+ human T cells; gene ACTB", "value": "+196%"}, {"measurement": "% increase by Amp.", "setting": "CD4+ human T cells; gene ACVR1, A low expression", "value": "+53%"}, {"measurement": "% increase by Amp.", "setting": "CD4+ human T cells; gene ACVR2, A low expression", "value": "+85%"}, {"measurement": "% increase by Amp.", "setting": "CD4+ human T cells; gene CCL5", "value": "+25%"}, {"measurement": "% increase by Amp.", "setting": "CD4+ human T cells; gene CCL11", "value": "+107%"}, {"measurement": "% increase by Amp.", "setting": "CD4+ human T cells; gene CCR4", "value": "+31%"}, {"measurement": "% increase by Amp.", "setting": "CD4+ human T cells; gene CCR6", "value": "+83%"}, {"measurement": "% increase by Amp.", "setting": "CD4+ human T cells; gene CCR7", "value": "+43%"}, {"measurement": "% increase by Amp.", "setting": "CD4+ human T cells; gene CD28", "value": "+175%"}, {"measurement": "% increase by Amp.", "setting": "CD4+ human T cells; gene CD40LG", "value": "+67%"}, {"measurement": "% increase by Amp.", "setting": "CD4+ human T cells; gene CREBBP", "value": "+49%"}, {"measurement": "% increase by Amp.", "setting": "CD4+ human T cells; gene CXCL10", "value": "+25%"}, {"measurement": "% increase by Amp.", "setting": "CD4+ human T cells; gene EGR3", "value": "−25", "unit": "%"}, {"measurement": "% increase by Amp.", "setting": "CD4+ human T cells; gene GFI1", "value": "+10%"}, {"measurement": "% increase by Amp.", "setting": "CD4+ human T cells; gene HRAS, A low expression", "value": "−12", "unit": "%"}, {"measurement": "% increase by Amp.", "setting": "CD4+ human T cells; gene IL1B, A low expression", "value": "+64%"}, {"measurement": "% increase by Amp.", "setting": "CD4+ human T cells; gene IL2RB", "value": "+93%"}, {"measurement": "% increase by Amp.", "setting": "CD4+ human T cells; gene IL2RG, A low expression", "value": "+78%"}, {"measurement": "% increase by Amp.", "setting": "CD4+ human T cells; gene IL9R", "value": "No change"}, {"measurement": "% increase by Amp.", "setting": "CD4+ human T cells; gene IL16, A low expression", "value": "+14%"}, {"measurement": "% increase by Amp.", "setting": "CD4+ human T cells; gene IRAK1", "value": "+171%"}, {"measurement": "% increase by Amp.", "setting": "CD4+ human T cells; gene JAK1", "value": "+161%"}, {"measurement": "% increase by Amp.", "setting": "CD4+ human T cells; gene JUN", "value": "+65%"}, {"measurement": "% increase by Amp.", "setting": "CD4+ human T cells; gene LTA", "value": "+48.5%"}, {"measurement": "% increase by Amp.", "setting": "CD4+ human T cells; gene MAP2K4", "value": "+150%"}, {"measurement": "% increase by Amp.", "setting": "CD4+ human T cells; gene MAP3K1, A low expression", "value": "+63%"}, {"measurement": "% increase by Amp.", "setting": "CD4+ human T cells; gene MAP3K2", "value": "+93%"}, {"measurement": "% increase by Amp.", "setting": "CD4+ human T cells; gene MAP3K7", "value": "+124%"}, {"measurement": "% increase by Amp.", "setting": "CD4+ human T cells; gene MAPK9", "value": "+46%"}, {"measurement": "% increase by Amp.", "setting": "CD4+ human T cells; gene NFKB1", "value": "+31%"}, {"measurement": "% increase by Amp.", "setting": "CD4+ human T cells; gene NFKB2", "value": "+195%"}, {"measurement": "% increase by Amp.", "setting": "CD4+ human T cells; gene NFKBIE", "value": "+132%"}, {"measurement": "% increase by Amp.", "setting": "CD4+ human T cells; gene NFKBIL1", "value": "+191%"}, {"measurement": "% increase by Amp.", "setting": "CD4+ human T cells; gene PAK1", "value": "+111%"}, {"measurement": "% increase by Amp.", "setting": "CD4+ human T cells; gene PIN1", "value": "+105%"}, {"measurement": "% increase by Amp.", "setting": "CD4+ human T cells; gene RANBP5", "value": "+108%"}, {"measurement": "% increase by Amp.", "setting": "CD4+ human T cells; gene REL", "value": "+132%"}, {"measurement": "% increase by Amp.", "setting": "CD4+ human T cells; gene RFX5", "value": "+137%"}, {"measurement": "% increase by Amp.", "setting": "CD4+ human T cells; gene RFXAP", "value": "+131%"}, {"measurement": "% increase by Amp.", "setting": "CD4+ human T cells; gene SDF2", "value": "+71%"}, {"measurement": "% increase by Amp.", "setting": "CD4+ human T cells; gene SELL", "value": "+124%"}, {"measurement": "% increase by Amp.", "setting": "CD4+ human T cells; gene SMAD4", "value": "+85%"}, {"measurement": "% increase by Amp.", "setting": "CD4+ human T cells; gene SMAD7, A low expression", "value": "+34%"}, {"measurement": "% increase by Amp.", "setting": "CD4+ human T cells; gene SP3", "value": "+47%"}, {"measurement": "% increase by Amp.", "setting": "CD4+ human T cells; gene SRF", "value": "+58%"}, {"measurement": "% increase by Amp.", "setting": "CD4+ human T cells; gene STAT1", "value": "+85%"}, {"measurement": "% increase by Amp.", "setting": "CD4+ human T cells; gene STAT4", "value": "+11%"}, {"measurement": "% increase by Amp.", "setting": "CD4+ human T cells; gene STAT6", "value": "no change"}, {"measurement": "% increase by Amp.", "setting": "CD4+ human T cells; gene TGFBR3", "value": "+139%"}, {"measurement": "% increase by Amp.", "setting": "CD4+ human T cells; gene TGIF, A low expression", "value": "+72%"}, {"measurement": "% increase by Amp.", "setting": "CD4+ human T cells; gene TLR2, A low expression", "value": "+419%"}, {"measurement": "% increase by Amp.", "setting": "CD4+ human T cells; gene TNFRSF11A, A low expression", "value": "+81%"}, {"measurement": "% increase by Amp.", "setting": "CD4+ human T cells; gene TNFα", "value": "+39%"}, {"measurement": "% increase by Amp.", "setting": "CD4+ human T cells; gene TRAF5, A low expression", "value": "+47%"}, {"measurement": "% increase by Amp.", "setting": "CD4+ human T cells; gene TRAF6, A low expression", "value": "+39%"}, {"measurement": "% increase by Amp.", "setting": "CD4+ human T cells; gene YY1", "value": "+152%"}]}]}
